These results are taken from US20240279214A1, “ALPHA4 BETA7 INEGRIN ANTAGONISTS AND USES THEREOF” (XinThera, Inc., priority 2022, published 2024).

For the test, the target named is T1, a4b7 integrin interaction with MadCAM-1 (Homo sapiens, UniProt P13612+P26010).
T1 construct: capture of a4b7 integrin expressing cells, RPMI8866; endogenous in cells; host or cells: RPMI8866
T1 sequence (P13612 34-1032): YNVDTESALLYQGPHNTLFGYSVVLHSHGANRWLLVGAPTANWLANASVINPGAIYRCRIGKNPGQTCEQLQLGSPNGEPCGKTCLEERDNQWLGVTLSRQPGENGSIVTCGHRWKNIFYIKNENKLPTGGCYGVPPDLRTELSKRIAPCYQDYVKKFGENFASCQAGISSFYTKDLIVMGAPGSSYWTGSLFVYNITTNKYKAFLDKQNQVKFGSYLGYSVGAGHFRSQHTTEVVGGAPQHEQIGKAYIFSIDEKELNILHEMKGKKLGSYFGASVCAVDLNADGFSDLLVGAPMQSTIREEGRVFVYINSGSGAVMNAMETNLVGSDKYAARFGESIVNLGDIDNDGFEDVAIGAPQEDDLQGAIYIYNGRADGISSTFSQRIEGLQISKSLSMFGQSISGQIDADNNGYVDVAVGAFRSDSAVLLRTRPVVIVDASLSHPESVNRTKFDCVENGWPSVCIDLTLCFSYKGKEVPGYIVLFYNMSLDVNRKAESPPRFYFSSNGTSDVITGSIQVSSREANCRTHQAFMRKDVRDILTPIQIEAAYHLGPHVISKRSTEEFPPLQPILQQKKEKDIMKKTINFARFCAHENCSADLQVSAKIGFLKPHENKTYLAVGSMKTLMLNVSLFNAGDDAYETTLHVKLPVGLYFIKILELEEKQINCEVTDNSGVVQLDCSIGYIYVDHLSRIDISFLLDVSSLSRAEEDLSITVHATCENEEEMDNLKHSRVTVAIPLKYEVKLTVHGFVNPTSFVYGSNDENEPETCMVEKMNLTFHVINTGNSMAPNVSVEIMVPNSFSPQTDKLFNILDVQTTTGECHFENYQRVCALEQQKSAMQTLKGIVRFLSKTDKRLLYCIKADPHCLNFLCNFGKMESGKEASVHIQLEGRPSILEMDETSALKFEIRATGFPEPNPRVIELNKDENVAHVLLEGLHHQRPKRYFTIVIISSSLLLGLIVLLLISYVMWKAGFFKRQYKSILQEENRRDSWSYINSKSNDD
T1 sequence (P26010 20-798): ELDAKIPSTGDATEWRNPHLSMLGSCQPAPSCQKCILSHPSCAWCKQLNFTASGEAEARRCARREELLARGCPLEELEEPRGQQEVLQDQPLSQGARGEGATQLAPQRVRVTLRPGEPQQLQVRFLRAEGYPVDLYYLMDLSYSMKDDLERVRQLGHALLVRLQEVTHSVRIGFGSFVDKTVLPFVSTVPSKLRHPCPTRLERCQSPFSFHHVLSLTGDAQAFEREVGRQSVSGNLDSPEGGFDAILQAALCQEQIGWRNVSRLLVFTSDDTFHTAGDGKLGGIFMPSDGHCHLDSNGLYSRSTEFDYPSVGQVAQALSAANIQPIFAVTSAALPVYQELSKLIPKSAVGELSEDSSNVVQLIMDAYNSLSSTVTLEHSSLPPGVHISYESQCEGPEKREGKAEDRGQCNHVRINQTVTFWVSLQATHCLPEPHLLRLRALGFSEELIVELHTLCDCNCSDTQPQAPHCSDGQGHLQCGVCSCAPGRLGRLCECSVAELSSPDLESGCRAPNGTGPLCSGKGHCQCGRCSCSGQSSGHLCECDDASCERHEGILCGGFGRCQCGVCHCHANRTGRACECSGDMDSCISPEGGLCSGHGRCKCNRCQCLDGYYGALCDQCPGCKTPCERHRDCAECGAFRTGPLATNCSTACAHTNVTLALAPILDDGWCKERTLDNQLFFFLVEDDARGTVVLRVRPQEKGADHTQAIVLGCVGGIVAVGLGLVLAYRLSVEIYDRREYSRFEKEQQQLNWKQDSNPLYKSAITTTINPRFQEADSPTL
Put plainly: a4b7 Cell Capture Assay (RPMI8866 cells on MAdCAM-1 Fc coated plates). Format: cell-based. Conditions: 50% human serum, 1 mM MgCl2, 1 hour incubation, CellTiter-Glo luminescence, read-out: a4B7 cell capture assay RMPI8866-MadCAM EC50. As for the experimental part:
The potency of inhibitors in preventing a4b7 integrin interaction with MadCAM-1 was measured by monitoring the capture of a4b7 integrin expressing cells, RPMI8866, on recombinant human MAdCAM-1 Fc chimera protein-coated plates. The protein was a fusion between human MAdCAM-1 (Met1-Gln333, Accession #AAY82472) and human IgG1 (Pro100-Lys330)] (R&D Systems, Catalog #6056-MC). 96-well plates (Thermofisher, Catalog #136102) were coated with the recombinant protein by dispensing 100 μL (1.0 μg/mL) per well. After a quick spin to settle down the coating solution using a plate centrifuge, plates were incubated overnight at 4° C. in a moisture chamber. On Day 2, the plates were washed with PBS using a Bluecatbio Blue®Washer (GentleSpin wash, 3 cycles, pressure=1, volume 150 uL). Blocking solution (1.0% BSA in PBS, Sigma, Catalog #A7979) was then added at 200 uL/well, and the plates were quickly spun to settle down blocking buffer and incubated in cell culture incubator at 37° C. and 5% CO2 for 1 hour. The plates were then washed with 0.1% BSA in PBS using a Bluecatbio Blue®Washer (GentleSpin wash, 3 cycles, pressure=1, volume 150 uL). RPMI8866 cells suspended in assay medium (1 mM MgCl2 25 mM HEPES and 50% human serum, Sigma, Catalog #H4522) at a density of 1.0×10^6 cells/mL were added at 100 uL/well. Each compound evaluated was prepared as a DMSO stock solution. Test compounds were evaluated with a 9-point serial dilution curve (1000, 333.3, 111.1, 55.6, 27.8, 13.9, 6.9, 2.3, and 0.77 nM)) and were added to the plates using a Tecan D.30e Digita dispenser, the dispensed stock is 100 nL and the final DMSO concentration is 0.1%. Potent compounds were re-evaluated at a new 9-point serial dilution curve (100, 33.3, 11.1, 5.6, 2.8, 1.4, 0.69, 0.23, and 0.08 nM). Each titration curves were performed in triplicate on the same plate, and most of compounds were retested in different dates multiple times. The plates were shaken at 300 rpm on orbital plate shaker for 3 minutes to mix the cells and compounds, quickly spun to settle the cells and solution, and incubated in cell culture incubator at 37° C. and 5% CO2. After 1 hour incubation, the unbound cells were washed away with RPMI1640 medium supplemented with 1 mM MgCl2 and 1% BSA) (wash buffer) using a Bluecatbio Blue®Washer (MagbeadsSpin wash, 1 cycle, pressure 1, volume=150 uL). After wash buffer removal, A mixture of wash buffer/CellTiter-Glo® Reagent (Pormega, catalog #G7573) at 1:1 (V/V) was added at volume of 100 uL to each well. The plates were placed in a chamber at 25° C. and incubated for 30 minutes. Luminescence was recorded using a Envision plate reader 2105 according to CellTiter-Glo protocol.
The mean luminescence signals from negative control wells without MadCAM-1 coating and compound treatment (cells only) was defined as 100% binding inhibition, and the mean luminescence signals from positive control wells with MadCAM-1 coating but without compound treatment (MadCAM-1 and cells only) was defined as 0% binding inhibition. The luminescence signals from other compound treated wells were normalized in percentage scale accordingly. The normalized mean % inhibition data were plotted against logarithmic compound concentration in nanomolar and were fitted with 4-parameter logistic model to obtain IC50 for each compound.
(In general: ATP-based viability assays read luminescence as a measure of living cells.)
In general, EC50 refers to the concentration at which the effect is half-maximal. As for `O=C(O)C[C@@H]1NC(=O)[C@@H](n2cc(CCN3CC(F)C3)c(C(F)(F)F)cc2=O)c2cccc(c2)Oc2cccc(C(F)(F)F)c2-c2cc1c(F)c(C(F)(F)F)c2` (relative stereo) [Example 13, [(14R*,17S)-19-fluoro-14-{5-[2-(3-fluoroazetidin-1-yl)ethyl]-2-oxo-4-(trifluoromethyl)pyridin-1-yl}-15-oxo-3,20-bis(trifluoromethyl)-8-oxa-16-azatetracyclo[16.3.1.1^{9,13}.0^{2,7}]tricosa-1(22),2(7),3,5,9,11,13(23),18,20-nonaen-17-yl]acetic acid], the EC50 is > 1000 nM.

As to `Cc1cccc2c1-c1cc(c(F)c(C(F)(F)F)c1)[C@H](CC(=O)O)NC(=O)[C@@H](n1cc(CCN3CC(F)C3)c(C(F)(F)F)cc1=O)c1cc(cc(C(F)(F)F)c1)O2` (relative stereo) [Example 14, [(14R*,17S)-19-fluoro-14-{5-[2-(3-fluoroazetidin-1-yl)ethyl]-2-oxo-4-(trifluoromethyl)pyridin-1-yl}-3-methyl-15-oxo-11,20-bis(trifluoromethyl)-8-oxa-16-azatetracyclo[16.3.1.1^{9,13}.0^{2,7}]tricosa-1(22),2(7),3,5,9,11,13(23),18,20-nonaen-17-yl]acetic acid], the EC50 is 38 nM.

On to `Cc1cccc2c1-c1cc(c(F)c(C(F)(F)F)c1)[C@H](CC(=O)O)NC(=O)[C@@H](n1cc(CCN(C)C)c(C(F)(F)F)cc1=O)c1cccc(c1)O2` (relative stereo) [Example 16, [(14R*,17S)-14-{5-[2-(dimethylamino)ethyl]-2-oxo-4-(trifluoromethyl)pyridin-1-yl}-19-fluoro-3-methyl-15-oxo-20-(trifluoromethyl)-8-oxa-16-azatetracyclo[16.3.1.1^{9,13}.0^{2,7}]tricosa-1(22),2(7),3,5,9,11,13(23),18,20-nonaen-17-yl]acetic acid], for which the EC50 was determined as 14 nM.

`O=C(O)C[C@@H]1NC(=O)[C@@H](n2cc(CCN3CC(F)C3)c(C(F)(F)F)cc2=O)c2cccc(c2)Oc2cccc(Cl)c2-c2cc1c(F)c(C(F)(F)F)c2` (relative stereo) [Example 17, [(14R*,17S)-3-chloro-19-fluoro-14-{5-[2-(3-fluoroazetidin-1-yl)ethyl]-2-oxo-4-(trifluoromethyl)pyridin-1-yl}-15-oxo-20-(trifluoromethyl)-8-oxa-16-azatetracyclo[16.3.1.1^{9,13}.0^{2,7}]tricosa-1(22),2(7),3,5,9,11,13(23),18,20-nonaen-17-yl]acetic acid]: the concentration giving a half-maximal response (EC50) was determined as 140 nM.

For the compound `Cc1cc2cc(c1F)[C@H](CC(=O)O)NC(=O)[C@@H](n1cc(CCN3CC(F)C3)c(C(F)(F)F)cc1=O)c1cc(ccc1F)Oc1cccc(Cl)c1-2` (relative stereo) [Example 19, [(14R*,17S)-3-chloro-12,19-difluoro-14-{5-[2-(3-fluoroazetidin-1-yl)ethyl]-2-oxo-4-(trifluoromethyl)pyridin-1-yl}-20-methyl-15-oxo-8-oxa-16-azatetracyclo[16.3.1.1^{9,13}.0^{2,7}]tricosa-1(22),2(7),3,5,9,11,13(23),18,20-nonaen-17-yl]acetic acid], the EC50 amounted to 0.84 nM.

`Cc1cc2cc(c1F)[C@H](CC(=O)O)NC(=O)[C@@H](n1cc(CCCN(C)C)c(C(F)(F)F)cc1=O)c1cc(ccc1F)Oc1cccc(C)c1-2` (relative stereo) [Example 20, [(14R*,17S)-14-{5-[3-(dimethylamino)propyl]-2-oxo-4-(trifluoromethyl)pyridin-1-yl}-12,19-difluoro-3,20-dimethyl-15-oxo-8-oxa-16-azatetracyclo[16.3.1.1^{9,13}.0^{2,7}]tricosa-1(22),2(7),3,5,9,11,13(23),18,20-nonaen-17-yl]acetic acid]: the EC50 was determined as 0.08 nM.

`Cc1cc2cc(c1F)[C@H](CC(=O)O)NC(=O)[C@@H](n1cc(CCN3CC(F)C3)c(C(F)(F)F)cc1=O)c1cc(cc(C(F)(F)F)c1)Oc1cccc(C)c1-2` (relative stereo) [Example 22, [(14R*,17S)-19-fluoro-14-{5-[2-(3-fluoroazetidin-1-yl)ethyl]-2-oxo-4-(trifluoromethyl)pyridin-1-yl}-3,20-dimethyl-15-oxo-11-(trifluoromethyl)-8-oxa-16-azatetracyclo[16.3.1.1^{9,13}.0^{2,7}]tricosa-1(22),2(7),3,5,9,11,13(23),18,20-nonaen-17-yl]acetic acid]: the EC50 worked out at 9.9 nM.

Turning to `Cc1cc2cc(c1F)[C@H](CC(=O)O)NC(=O)[C@@H](n1cc(CCN(C)C)c(C(F)(F)F)cc1=O)c1cccc(c1)Oc1cccc(C)c1-2` (relative stereo) [Example 23, [(14R*,17S)-14-{5-[2-(dimethylamino)ethyl]-2-oxo-4-(trifluoromethyl)pyridin-1-yl}-19-fluoro-3,20-dimethyl-15-oxo-8-oxa-16-azatetracyclo[16.3.1.1^{9,13}.0^{2,7}]tricosa-1(22),2(7),3,5,9,11,13(23),18,20-nonaen-17-yl]acetic acid], the EC50 amounted to 2.3 nM.
